From patent publication US11666570B2, “Diagnosis and regulation of epidermal differentiation and cancer cell activity” (The Board of Trustees of the Leland Stanford Junior …, priority 2019, dated 2023)
Residues, ends and D or L forms follow the SMILES beside them. *: point of attachment. Cbz = O=C(OCc1ccccc1)*

What was measured:
Assay type in all cases: cell-based
[1] = tested on: oncogenic Ras-transformed human skin organoids; assay: Neoplastic invasion in human skin organoids transformed by oncogenic Ras and Cdk4
Description: (§1) As loss of differentiation may be coupled to other cancer-enabling behaviors, we next considered the therapeutic implications of aberrant RET activation in SCC. […] We next used MAB21L4-intact or MAB21L4-ablated primary human keratinocytes to generate skin organoids programmed to undergo invasive neoplasia by oncogenic Ras and Cdk4. These neoplastic tissues were maintained in culture medium containing BLU-667 to investigate the contribution of RET to SCC development.
(§2) To test this, we assessed neoplastic invasion in human skin organoids with BLU-667 added to the culture medium after early malignant transformation occurred. […] Human skin tissues undergoing malignant transformation by enforced expression of oncogenic Ras and Cdk4 were then subjected to BLU-667 treatment following the onset of early neoplastic invasion.
(§3) Human Skin Organoids and Skin Xenografts Generation of human skin organoids was performed as previously described. Briefly, 1×10^6 keratinocytes were seeded onto a 1 cm^2 section of devitalized human dermis and cultured at the air-liquid interface for up to 6 days for differentiation studies. To generate organotypic invasive epidermal neoplasia, devitalized human dermis was populated with human primary fibroblasts at least 1 week prior to keratinocyte seeding. Keratinocytes were transduced with oncogenic HRas as well as Cdk4 and seeded onto fibroblast-containing dermis. Neoplastic tissues were harvested for analysis up to 14 days post-seeding.
Immunofluorescence Human skin organoids were embedded in Optimal Cutting Temperature (OCT) compound (Sakura Finetek) and 7 μm tissue sections were mounted onto polylysine slides (Thermo Scientific). Tissue cryosections were fixed in 100% methanol at −20° C. for 10 min and subsequently permeabilized by incubation with 0.1% Triton X-100 (Sigma-Aldrich) in PBS. The tissues were then incubated for 30 minutes at room temperature with blocking buffer (horse serum diluted 1:10 in PBS) and then for 1 hour with primary antibodies diluted in 0.05% Triton X-100 (Sigma-Aldrich) and 1:100 horse serum in PBS. […]
Images of several zstacks were acquired and the maximum intensity projection image was generated by using the Fiji-ImageJ package. Invasion index was calculated as integrated density of the Keratin 5 staining underneath the basement membrane divided by the length of the basement membrane. Integrated density and basement membrane length were both analyzed using the Fiji-ImageJ package. The invasion depth was calculated as the distance between the basement membrane and the most distant invading cell in each field of view analyzed. The distance between the basement membrane and the most distant invading cell was analyzed in 3 areas of each field of view using the Fiji-ImageJ package and was averaged. […]

human skin organoids = assay: Stratification and epidermal thickness of organotypic human epidermis under BLU-667 (immunofluorescence); details: vs vehicle (DMSO)
Description: as §1, §2
Human Skin Organoids and Skin Xenografts Generation of human skin organoids was performed as previously described. Briefly, 1×10^6 keratinocytes were seeded onto a 1 cm^2 section of devitalized human dermis and cultured at the air-liquid interface for up to 6 days for differentiation studies. To generate organotypic invasive epidermal neoplasia, devitalized human dermis was populated with human primary fibroblasts at least 1 week prior to keratinocyte seeding. Keratinocytes were transduced with oncogenic HRas as well as Cdk4 and seeded onto fibroblast-containing dermis. […]

RET [2] = biological target: T1, RET (Homo sapiens, UniProt P07949); assay: RET phosphorylation at Y1062 in non-transformed human skin organoids (Western blot); details: non-transformed human skin organoids grown 7 days on dermis, BLU-667 15 nM vs DMSO
T1 construct: endogenous in cells; host or cells: human skin organoids from primary human keratinocytes seeded on devitalized human dermis
Description: as §1
Human Skin Organoids and Skin Xenografts Generation of human skin organoids was performed as previously described. […] To generate organotypic invasive epidermal neoplasia, devitalized human dermis was populated with human primary fibroblasts at least 1 week prior to keratinocyte seeding. Keratinocytes were transduced with oncogenic HRas as well as Cdk4 and seeded onto fibroblast-containing dermis. Neoplastic tissues were harvested for analysis up to 14 days post-seeding.
Western Blotting Cells and organoids were both lysed in RIPA buffer (Thermo Fisher Scientific) supplemented with phosphatase inhibitor and protease inhibitor cocktails (Sigma-Aldrich). For human skin organoids, the epidermis was separated from the dermis, immersed in RIPA buffer, and subjected to 4 cycles of disruption using the gentleMACS Dissociator (Miltenyi Biotec). […]

RET [3] = assay: RET expression in normal human skin organoids treated with proteasome inhibitor (Western blot); details: normal skin organoids grown 3 days on dermis, MG132 20 μM for 12 hrs vs DMSO
Description: Given the proximity of CacyBP and RET, we wondered whether RET stability in the skin might be regulated by ubiquitination. Fluorescent PLA signal generated by RET and ubiquitin proximity was abolished in MAB21L4-ablated epidermis using two independent sgRNAs (FIG. 5f,g). […] Loss of MAB21L4, such as occurs in cancer, would stabilize RET by preventing its Siah1-mediated degradation and may explain RET upregulation in SCC.
as §3
Western Blotting Cells and organoids were both lysed in RIPA buffer (Thermo Fisher Scientific) supplemented with phosphatase inhibitor and protease inhibitor cocktails (Sigma-Aldrich). […]

[4] = MAB21L4-intact or MAB21L4-ablated Ras/Cdk4 organoids, 7 days in medium containing BLU-667 15 nM
[5] = Ras/Cdk4 organoids, BLU-667 15 nM initiated on day 7 after early invasion, analysed day 14, vs vehicle

T1 sequence (P07949 29-1114): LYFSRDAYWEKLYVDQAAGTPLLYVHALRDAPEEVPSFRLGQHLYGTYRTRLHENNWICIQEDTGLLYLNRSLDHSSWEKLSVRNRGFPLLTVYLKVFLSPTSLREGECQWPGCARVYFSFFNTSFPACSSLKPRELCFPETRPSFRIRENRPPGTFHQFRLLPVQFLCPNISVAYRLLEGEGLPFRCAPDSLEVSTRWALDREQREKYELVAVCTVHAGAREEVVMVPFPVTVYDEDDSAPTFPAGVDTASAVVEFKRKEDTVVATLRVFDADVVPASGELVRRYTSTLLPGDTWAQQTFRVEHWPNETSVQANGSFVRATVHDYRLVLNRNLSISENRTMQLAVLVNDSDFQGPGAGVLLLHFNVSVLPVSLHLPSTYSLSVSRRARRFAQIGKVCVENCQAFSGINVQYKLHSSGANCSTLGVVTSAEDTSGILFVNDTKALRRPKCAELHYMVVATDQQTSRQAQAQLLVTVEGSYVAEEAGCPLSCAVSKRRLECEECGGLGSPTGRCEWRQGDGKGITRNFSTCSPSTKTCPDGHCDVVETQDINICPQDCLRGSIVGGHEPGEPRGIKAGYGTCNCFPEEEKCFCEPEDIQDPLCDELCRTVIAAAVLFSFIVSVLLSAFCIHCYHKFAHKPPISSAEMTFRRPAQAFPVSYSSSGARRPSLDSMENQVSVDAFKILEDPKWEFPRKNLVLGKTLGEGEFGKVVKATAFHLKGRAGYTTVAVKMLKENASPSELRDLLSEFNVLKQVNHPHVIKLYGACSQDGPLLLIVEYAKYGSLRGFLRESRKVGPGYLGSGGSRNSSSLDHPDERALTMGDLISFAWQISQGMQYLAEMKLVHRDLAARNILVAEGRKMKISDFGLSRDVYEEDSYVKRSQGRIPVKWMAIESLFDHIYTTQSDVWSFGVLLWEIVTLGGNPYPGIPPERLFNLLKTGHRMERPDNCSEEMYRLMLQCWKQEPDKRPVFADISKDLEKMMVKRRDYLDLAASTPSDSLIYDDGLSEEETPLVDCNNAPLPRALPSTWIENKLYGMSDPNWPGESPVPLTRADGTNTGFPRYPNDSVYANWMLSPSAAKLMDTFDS

For `CO[C@]1(C(=O)N[C@@H](C)c2ccc(-n3cc(F)cn3)nc2)CC[C@H](c2nc(C)cc(Nc3cc(C)[nH]n3)n2)CC1` [BLU-667], the basement membrane degradation [1, 4] was “prevented basement membrane degradation”, the “neoplastic invasion (invasion index)” value [1, 4] was “suppressed invasion accelerated by MAB21L4 loss” and the “keratinocytes below the basement membrane (invasion index), established invasion” value [1, 5] was “fewer keratinocytes below the basement membrane”. The “tumor infiltration depth (invasion depth), established invasion” value [1, 5] was “reduction in tumor infiltration depth”, the “epidermal stratification and thickness” value (human skin organoids; late-onset treatment: BLU-667 15 nM initiated on day 7, 14 days of growth) was “did not adversely affect epidermal stratification and thickness” and the “stratification and epidermal thickness” value (human skin organoids; organoids cultured in continuous presence of BLU-667 15 nM, 7 days) was “did not differ substantially from vehicle controls”. The “RET phosphorylation at Y1062 (suppression of RET signaling)” value (RET [2]) was “reduction in RET phosphorylation at Y1062”.
For `CC(C)C[C@@H](C=O)NC(=O)[C@H](CC(C)C)NC(=O)[C@H](CC(C)C)NC(=O)OCc1ccccc1` [MG132] (Cbz-Leu-Leu-Leu-aldehyde), the RET expression (RET [3]) was “RET accumulation”.
